Here are results for one compound from PMC5218480 (PLoS ONE, 2017).

This assay deals with MV-4-11 cells. As to the kind of experiment: Gene expression microarray analysis (Affymetrix PrimeView) and GSEA. In kind it is cell-based, human. On the set-up: RFU PODN (11730768_x_at) / Fold change /veh PODN (11730768_x_at) / RFU LINC00158 (11744669_a_at) / Fold change /veh LINC00158 (11744669_a_at) / RFU DUSP10 (11751237_a_at) / Fold change /veh DUSP10 (11751237_a_at) / RFU ID3 (11757404_x_at) / Fold change /veh ID3 (11757404_x_at) / RFU PLEKHG5 (11737974_s_at) / Fold change /veh PLEKHG5 (11737974_s_at) / RFU LRRC4B (11730491_at) / Fold change /veh LRRC4B (11730491_at) / RFU GIMAP4 (11747438_a_at) / Fold change /veh GIMAP4 (11747438_a_at) / RFU KRT8 (11758183_x_at) / Fold change /veh KRT8 (11758183_x_at) / RFU CNN1 (11734310_a_at) / Fold change /veh CNN1 (11734310_a_at) / RFU VPS37D (11726825_at) / Fold change /veh VPS37D (11726825_at) / RFU C10orf10 (11716522_x_at) / Fold change /veh C10orf10 (11716522_x_at) / RFU KIR2DL2 /// KIR2DL4 /// KIR2DL5A /// KIR2DL5B /// KIR2DS1 /// KIR2DS2 /// KIR2DS3 /// KIR2DS4 /// KIR3DL3 /// KIR3DL3 /// KIR3DS1 (11738374_at) / Fold change /veh KIR2DL2 /// KIR2DL4 /// KIR2DL5A /// KIR2DL5B /// KIR2DS1 /// KIR2DS2 /// KIR2DS3 /// KIR2DS4 /// KIR3DL3 /// KIR3DL3 /// KIR3DS1 (11738374_at) / RFU C1QL1 (11718748_at) / Fold change /veh C1QL1 (11718748_at) / RFU TMPRSS4 (11747572_a_at) / Fold change /veh TMPRSS4 (11747572_a_at) / RFU HAMP (11756126_x_at) / Fold change /veh HAMP (11756126_x_at) / RFU RNFT2 (11725882_a_at) / Fold change /veh RNFT2 (11725882_a_at) / RFU NR4A2 (11747474_a_at) / Fold change /veh NR4A2 (11747474_a_at) / RFU ABCC12 (11746883_a_at) / Fold change /veh ABCC12 (11746883_a_at) / RFU TMEM136 (11760407_x_at) / Fold change /veh TMEM136 (11760407_x_at) / RFU CLDN22 /// WWC2 (11732394_at) / Fold change /veh CLDN22 /// WWC2 (11732394_at) / RFU HLA-DPB1 (11760878_x_at) / Fold change /veh HLA-DPB1 (11760878_x_at) / RFU SPINT1 (11716480_a_at) / Fold change /veh SPINT1 (11716480_a_at) / RFU GAP43 (11754022_s_at) / Fold change /veh GAP43 (11754022_s_at) / RFU A4GNT (11735810_at) / Fold change /veh A4GNT (11735810_at) / RFU PRB3 (11715151_x_at) / Fold change /veh PRB3 (11715151_x_at) / RFU TUBB4B (11761932_at) / Fold change /veh TUBB4B (11761932_at) / RFU CAPN14 (11732068_a_at) / Fold change /veh CAPN14 (11732068_a_at) / RFU TMCC2 (11721928_a_at) / Fold change /veh TMCC2 (11721928_a_at) / RFU IRGQ (11745062_a_at) / Fold change /veh IRGQ (11745062_a_at) / RFU FAM174B (11720279_a_at) / Fold change /veh FAM174B (11720279_a_at) / RFU TMPRSS4 (11748680_a_at) / Fold change /veh TMPRSS4 (11748680_a_at) / RFU FAM212B (11763350_a_at) / Fold change /veh FAM212B (11763350_a_at) / RFU PLEKHG5 (11743358_a_at) / Fold change /veh PLEKHG5 (11743358_a_at) / RFU ZSCAN30 (11745921_a_at) / Fold change /veh ZSCAN30 (11745921_a_at) / RFU CMKLR1 (11741424_a_at) / Fold change /veh CMKLR1 (11741424_a_at) / RFU LOC101060620 /// MAPK8IP1 (11723275_at) / Fold change /veh LOC101060620 /// MAPK8IP1 (11723275_at) / RFU SPTSSB (11747773_x_at) / Fold change /veh SPTSSB (11747773_x_at) / RFU PRSS12 (11739890_at) / Fold change /veh PRSS12 (11739890_at) / RFU BIN1 (11741810_x_at) / Fold change /veh BIN1 (11741810_x_at) / RFU WNT11 (11732464_a_at) / Fold change /veh WNT11 (11732464_a_at) / RFU C10orf10 (11716521_a_at) / Fold change /veh C10orf10 (11716521_a_at) / RFU C5orf56 (11738089_at) / Fold change /veh C5orf56 (11738089_at) / RFU CYB561 (11721691_x_at) / Fold change /veh CYB561 (11721691_x_at) / RFU ANKRD19P (11752326_a_at) / Fold change /veh ANKRD19P (11752326_a_at) / RFU OR2T12 /// OR2T33 /// OR2T8 (11738714_s_at) / Fold change /veh OR2T12 /// OR2T33 /// OR2T8 (11738714_s_at) / RFU VCAN (11748164_a_at) / Fold change /veh VCAN (11748164_a_at) / RFU JSRP1 (11732532_at) / Fold change /veh JSRP1 (11732532_at) / RFU KRTAP10-11 (11738290_x_at) / Fold change /veh KRTAP10-11 (11738290_x_at) / RFU MYO3A (11730013_a_at) / Fold change /veh MYO3A (11730013_a_at) / RFU EBF3 (11725865_a_at) / Fold change /veh EBF3 (11725865_a_at) / RFU CAMK2N1 (11719241_x_at) / Fold change /veh CAMK2N1 (11719241_x_at) / RFU C5orf56 (11738088_a_at) / Fold change /veh C5orf56 (11738088_a_at) / RFU OLFML3 (11715873_a_at) / Fold change /veh OLFML3 (11715873_a_at) / RFU LOC100653217 /// NTM (11731650_a_at) / Fold change /veh LOC100653217 /// NTM (11731650_a_at) / RFU MAPK11 (11762145_a_at) / Fold change /veh MAPK11 (11762145_a_at) / RFU FIZ1 (11724087_x_at) / Fold change /veh FIZ1 (11724087_x_at) / RFU OASL (11726364_x_at) / Fold change /veh OASL (11726364_x_at) / RFU SOX15 (11748057_x_at) / Fold change /veh SOX15 (11748057_x_at) / RFU CD79A (11719716_a_at) / Fold change /veh CD79A (11719716_a_at) / RFU HIST1H1D (11736915_at) / Fold change /veh HIST1H1D (11736915_at) / RFU CASKIN2 (11723855_a_at) / Fold change /veh CASKIN2 (11723855_a_at) / RFU LOC730098 (11760151_x_at) / Fold change /veh LOC730098 (11760151_x_at) / RFU OR4N2 (11742367_at) / Fold change /veh OR4N2 (11742367_at) / RFU PRRT2 (11749266_a_at) / Fold change /veh PRRT2 (11749266_a_at) / RFU SNX32 (11753110_a_at) / Fold change /veh SNX32 (11753110_a_at) / RFU CDHR5 (11726645_a_at) / Fold change /veh CDHR5 (11726645_a_at) / RFU RCAN1 (11760418_a_at) / Fold change /veh RCAN1 (11760418_a_at) / RFU FAM167A (11723789_a_at) / Fold change /veh FAM167A (11723789_a_at) / RFU FAM26E (11764081_at) / Fold change /veh FAM26E (11764081_at) / RFU ISYNA1 (11749810_s_at) / Fold change /veh ISYNA1 (11749810_s_at) / RFU ACY1 (11761880_at) / Fold change /veh ACY1 (11761880_at) / RFU 11764098_at / Fold change /veh 11764098_at / RFU SAMD14 (11745864_x_at) / Fold change /veh SAMD14 (11745864_x_at) / RFU NPB (11741838_a_at) / Fold change /veh NPB (11741838_a_at) / RFU TMPRSS6 (11731388_a_at) / Fold change /veh TMPRSS6 (11731388_a_at) / RFU KRTAP10-2 (11738614_at) / Fold change /veh KRTAP10-2 (11738614_at) / RFU ARHGAP8 /// PRR5-ARHGAP8 (11727945_x_at) / Fold change /veh ARHGAP8 /// PRR5-ARHGAP8 (11727945_x_at) / RFU KRTAP5-7 /// NADSYN1 (11734609_at) / Fold change /veh KRTAP5-7 /// NADSYN1 (11734609_at) / RFU RASL12 (11751679_a_at) / Fold change /veh RASL12 (11751679_a_at) / RFU CDKN2B (11736163_a_at) / Fold change /veh CDKN2B (11736163_a_at) / RFU PRF1 (11729649_at) / Fold change /veh PRF1 (11729649_at) / RFU, ZNF638 /// ZNF638-IT1 / Fold change vs veh, ZNF638 /// ZNF638-IT1 / RFU, PANK3 / Fold change vs veh, PANK3 / RFU, SH3YL1 / Fold change vs veh, SH3YL1 / RFU, ZEB2 / Fold change vs veh, ZEB2 / RFU, NRIP1 / Fold change vs veh, NRIP1 / RFU, PTTG1IP / Fold change vs veh, PTTG1IP / RFU, CAPN2 / Fold change vs veh, CAPN2 / RFU, MED14 / Fold change vs veh, MED14 / RFU, SNORA58 / Fold change vs veh, SNORA58 / RFU, C1orf63 / Fold change vs veh, C1orf63 / RFU, LRRFIP1 / Fold change vs veh, LRRFIP1 / RFU, NDUFAF7 / Fold change vs veh, NDUFAF7 / RFU, SLC12A2 / Fold change vs veh, SLC12A2 / RFU, IBTK / Fold change vs veh, IBTK / RFU, ESF1 / Fold change vs veh, ESF1 / Fold change vs veh, TMEM50B / RFU, TAOK1 / Fold change vs veh, TAOK1 / RFU, ACBD3 / Fold change vs veh, ACBD3 / RFU, TMA16 / Fold change vs veh, TMA16 / RFU, RWDD3 / Fold change vs veh, RWDD3 / RFU, BCAT1 / Fold change vs veh, BCAT1 / RFU, EDEM3 / Fold change vs veh, EDEM3 / RFU, TMEM33 / Fold change vs veh, TMEM33 / RFU, WDR75 / Fold change vs veh, WDR75 / RFU, AHCTF1 / Fold change vs veh, AHCTF1 / RFU, TFRC / Fold change vs veh, TFRC / RFU, ZDHHC17 / Fold change vs veh, ZDHHC17 / RFU, NOM1 / Fold change vs veh, NOM1 / RFU, ARL8B / Fold change vs veh, ARL8B / RFU, ZBTB11 / Fold change vs veh, ZBTB11 / RFU, TAMM41 / Fold change vs veh, TAMM41 / RFU, KIAA1704 /// LOC100996395 / Fold change vs veh, KIAA1704 /// LOC100996395 / RFU, ING1 / Fold change vs veh, ING1 / RFU, TRMT61B / Fold change vs veh, TRMT61B / RFU, FUBP3 / Fold change vs veh, FUBP3 / RFU, TP53 / Fold change vs veh, TP53 / RFU, TNKS2 / Fold change vs veh, TNKS2 / RFU, ZFP14 / Fold change vs veh, ZFP14 / RFU, ACTR2 / Fold change vs veh, ACTR2 / RFU, PPP3R1 / Fold change vs veh, PPP3R1 / RFU, PIK3R1 / Fold change vs veh, PIK3R1 / RFU, HNRNPA1 / Fold change vs veh, HNRNPA1 / RFU, RNF170 / Fold change vs veh, RNF170 / RFU, ZNF28 / Fold change vs veh, ZNF28 / RFU, RNGTT / Fold change vs veh, RNGTT / RFU, OGT / Fold change vs veh, OGT / RFU, BRD1 / Fold change vs veh, BRD1 / RFU, MARS / Fold change vs veh, MARS / RFU, ZNF655 / Fold change vs veh, ZNF655 / RFU, FAHD1 / Fold change vs veh, FAHD1 / RFU, BDP1 / Fold change vs veh, BDP1 / RFU, LRRCC1 / Fold change vs veh, LRRCC1 / RFU, ARID1A / Fold change vs veh, ARID1A / RFU, ZNF146 / Fold change vs veh, ZNF146 / RFU, ZNF330 / Fold change vs veh, ZNF330 / RFU, GPN3 / Fold change vs veh, GPN3 / RFU, C9orf123 / Fold change vs veh, C9orf123 / RFU, N4BP2L2 / Fold change vs veh, N4BP2L2 / RFU, ARFIP1 / Fold change vs veh, ARFIP1 / RFU, FAM179B / Fold change vs veh, FAM179B / RFU, BCL10 / Fold change vs veh, BCL10 / RFU, UHRF1BP1L / Fold change vs veh, UHRF1BP1L / RFU, BET1 / Fold change vs veh, BET1 / RFU, CNOT2 / Fold change vs veh, CNOT2 / RFU, ZNF268 / Fold change vs veh, ZNF268 / Fold change vs veh, ZNF507 / RFU, DGCR2 / Fold change vs veh, DGCR2 / RFU, WDSUB1 / Fold change vs veh, WDSUB1 / Fold change vs veh, HSP90B1 /// MIR3652 / RFU, ADSS / Fold change vs veh, ADSS / RFU, GK / Fold change vs veh, GK / RFU, ZNF148 / Fold change vs veh, ZNF148 / RFU, TAF9 / Fold change vs veh, TAF9 / RFU, SLC1A5 / Fold change vs veh, SLC1A5 / RFU, SLMO2 / Fold change vs veh, SLMO2 / RFU, ABCC4 / Fold change vs veh, ABCC4 / RFU, LOC101060439 /// RAP1B / Fold change vs veh, LOC101060439 /// RAP1B / RFU, RFX7 / Fold change vs veh, RFX7 / RFU, GTPBP10 / Fold change vs veh, GTPBP10 / RFU, CNEP1R1 / Fold change vs veh, CNEP1R1 / RFU, BIVM-ERCC5 /// ERCC5 / Fold change vs veh, BIVM-ERCC5 /// ERCC5 / RFU, ILF3 / Fold change vs veh, ILF3 / RFU 11762660_at / Fold change /veh 11762660_at / RFU VCAN (11757783_s_at) / Fold change /veh VCAN (11757783_s_at) / RFU DDX43 (11728927_at) / Fold change /veh DDX43 (11728927_at) / RFU KRT8 (11758188_x_at) / Fold change /veh KRT8 (11758188_x_at) / RFU NKD1 (11759106_at) / Fold change /veh NKD1 (11759106_at) / RFU SRD5A1 (11742802_a_at) / Fold change /veh SRD5A1 (11742802_a_at) / RFU TPSAB1 /// TPSB2 (11721975_s_at) / Fold change /veh TPSAB1 /// TPSB2 (11721975_s_at) / RFU GSTM3 (11746129_a_at) / Fold change /veh GSTM3 (11746129_a_at) / RFU IL23R (11737362_x_at) / Fold change /veh IL23R (11737362_x_at) / RFU TMEM51 (11727254_a_at) / Fold change /veh TMEM51 (11727254_a_at) / RFU PIWIL2 (11732686_x_at) / Fold change /veh PIWIL2 (11732686_x_at) / RFU ORM1 (11744905_x_at) / Fold change /veh ORM1 (11744905_x_at) / RFU CCDC152 (11743942_at) / Fold change /veh CCDC152 (11743942_at) / RFU ECM1 (11717891_a_at) / Fold change /veh ECM1 (11717891_a_at) / RFU IL23R (11748794_a_at) / Fold change /veh IL23R (11748794_a_at) / RFU TNFAIP8L3 (11732012_x_at) / Fold change /veh TNFAIP8L3 (11732012_x_at) / RFU MBOAT4 (11741988_at) / Fold change /veh MBOAT4 (11741988_at) / RFU 11764193_at / Fold change /veh 11764193_at / RFU TMEM53 (11763286_at) / Fold change /veh TMEM53 (11763286_at) / RFU MAGEB2 (11727129_at) / Fold change /veh MAGEB2 (11727129_at) / RFU TMEM200A (11744735_a_at) / Fold change /veh TMEM200A (11744735_a_at) / RFU CCDC152 (11751479_a_at) / Fold change /veh CCDC152 (11751479_a_at) / RFU FAM211A (11726209_a_at) / Fold change /veh FAM211A (11726209_a_at) / RFU RGS16 (11746705_a_at) / Fold change /veh RGS16 (11746705_a_at) / RFU VCAN (11755009_s_at) / Fold change /veh VCAN (11755009_s_at) / RFU RHOB (11743442_s_at) / Fold change /veh RHOB (11743442_s_at) / RFU RGS16 (11720943_a_at) / Fold change /veh RGS16 (11720943_a_at) / RFU RGS16 (11720944_at) / Fold change /veh RGS16 (11720944_at) / RFU, VPS4B / Fold change vs veh, VPS4B / RFU, CREB1 / Fold change vs veh, CREB1 / RFU, DNAJC13 / Fold change vs veh, DNAJC13 / RFU, GNAQ / Fold change vs veh, GNAQ / RFU, CDK5R1 / Fold change vs veh, CDK5R1 / RFU, ZRANB3 / Fold change vs veh, ZRANB3 / RFU, CUL4A / Fold change vs veh, CUL4A / RFU, CCNY / Fold change vs veh, CCNY / RFU, UFL1 / Fold change vs veh, UFL1 / RFU, COG3 / Fold change vs veh, COG3 / RFU, DIAPH2 / Fold change vs veh, DIAPH2 / RFU, SKA2 / Fold change vs veh, SKA2 / RFU, AFF3 / Fold change vs veh, AFF3 / RFU, LMF1 / Fold change vs veh, LMF1 / RFU, IPO11 / Fold change vs veh, IPO11 / RFU, DFFB / Fold change vs veh, DFFB / RFU, FOXP1 / Fold change vs veh, FOXP1 / RFU, CARD8 / Fold change vs veh, CARD8 / RFU, STRN3 / Fold change vs veh, STRN3 / RFU, ADK / Fold change vs veh, ADK / RFU, RASSF2 / Fold change vs veh, RASSF2 / RFU, WIPF1 / Fold change vs veh, WIPF1 / RFU, LARP1B / Fold change vs veh, LARP1B / RFU, RASA1 / Fold change vs veh, RASA1 / RFU, RB1 / Fold change vs veh, RB1 / RFU, PPFIA1 / Fold change vs veh, PPFIA1 / RFU, MAT2A / Fold change vs veh, MAT2A / RFU, CCT5 / Fold change vs veh, CCT5 / RFU, WDR92 / Fold change vs veh, WDR92 / RFU, CUX1 / Fold change vs veh, CUX1 / RFU, TTC7A / Fold change vs veh, TTC7A / RFU, TMEM135 / Fold change vs veh, TMEM135 / RFU, DEPTOR / Fold change vs veh, DEPTOR / RFU, CPM / Fold change vs veh, CPM / RFU, DNAJB6 / Fold change vs veh, DNAJB6 / RFU, CACNA2D3 / Fold change vs veh, CACNA2D3 / RFU, DTX4 / Fold change vs veh, DTX4 / RFU, TFCP2 / Fold change vs veh, TFCP2 / RFU, GMCL1 /// GMCL1P1 / Fold change vs veh, GMCL1 /// GMCL1P1 / RFU, AEBP2 / Fold change vs veh, AEBP2 / RFU, SNHG1 /// SNORD22 /// SNORD25 /// SNORD26 /// SNORD27 /// SNORD28 /// SNORD29 /// SNORD31 / Fold change vs veh, SNHG1 /// SNORD22 /// SNORD25 /// SNORD26 /// SNORD27 /// SNORD28 /// SNORD29 /// SNORD31 / Fold change (Aza/veh), C12orf56 (ProbeSet 11735607_a_at) / Fold change (ACY-1035/veh), C12orf56 (ProbeSet 11735607_a_at) / Fold change (Aza/veh), FGFR1OP (ProbeSet 11751329_s_at) / Fold change (ACY-1035/veh), FGFR1OP (ProbeSet 11751329_s_at) / Fold change (Aza/veh), VPS36 (ProbeSet 11739960_a_at) / Fold change (ACY-1035/veh), VPS36 (ProbeSet 11739960_a_at) / RFU SYPL1 (11715823_x_at) / Fold change /veh SYPL1 (11715823_x_at) / RFU IGFBP7 (11715501_s_at) / Fold change /veh IGFBP7 (11715501_s_at) / RFU REEP3 (11722064_at) / Fold change /veh REEP3 (11722064_at) / RFU IGLL1 (11728026_x_at) / Fold change /veh IGLL1 (11728026_x_at): dose or concentration left out as unconfirmed. As to conditions: MV-4-11 cells, 48 hours.

For the compound `Nc1ccc(-c2cccs2)cc1NC(=O)c1ccc2c(c1)cc(C1CC1)n2CCN1CCOCC1` [ACY-1035], the “Fold change /veh MYO3A (11730013_a_at)” value turned out to be 1.10.
